Patent publication US11976083B2, “Inhibitors of peptidylarginine deiminases” (Gilead Sciences, Inc., priority 2020, dated 2024)
pIC50: −log10 of the molar value.

Biological target: T1, human PAD4 (Homo sapiens, UniProt Q9UM07)
T1 construct: human PAD4 (NM_012387), A2-P663, was PCR amplified; His-SUMO (N, cleaved yes); made in house; host or cells: E. coli BL21(DE3)
Assay: In vitro PAD4 BAEE biochemical assay
Conditions: BAEE substrate 3 mM, 5 nM PAD4, 2 mM calcium chloride; geometric mean of multiple experiments
How it was run: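 Assay was run at 25 °C using 3 mM BAEE and 5 nM human PAD4 after a 30 min compound preincubation; ammonia produced over 2 h was quantified by OPA-derived fluorescence. Full inhibition was defined by 50 µM BB-Cl-Amidine, and IC50 came from variable-slope nonlinear regression.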

T1 sequence (Q9UM07 2-663): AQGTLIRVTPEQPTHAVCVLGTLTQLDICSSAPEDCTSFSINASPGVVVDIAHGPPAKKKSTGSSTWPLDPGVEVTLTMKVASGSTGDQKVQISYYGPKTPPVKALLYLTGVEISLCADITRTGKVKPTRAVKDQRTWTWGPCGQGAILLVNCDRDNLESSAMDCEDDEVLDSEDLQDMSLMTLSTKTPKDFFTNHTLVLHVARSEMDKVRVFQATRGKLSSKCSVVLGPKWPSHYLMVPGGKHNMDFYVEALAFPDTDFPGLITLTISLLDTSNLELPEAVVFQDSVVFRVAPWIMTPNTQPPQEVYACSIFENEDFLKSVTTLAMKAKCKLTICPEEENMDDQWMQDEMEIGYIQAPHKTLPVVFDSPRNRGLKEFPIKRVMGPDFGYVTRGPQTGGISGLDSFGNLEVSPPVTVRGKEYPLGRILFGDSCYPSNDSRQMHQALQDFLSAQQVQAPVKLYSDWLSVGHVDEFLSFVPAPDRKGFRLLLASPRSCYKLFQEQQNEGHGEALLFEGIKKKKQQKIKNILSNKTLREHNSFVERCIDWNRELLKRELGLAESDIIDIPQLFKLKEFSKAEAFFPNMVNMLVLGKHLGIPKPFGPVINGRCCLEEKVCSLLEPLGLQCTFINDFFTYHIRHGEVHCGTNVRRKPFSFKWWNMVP

| pIC50 | Structure (SMILES) |
| --- | --- |
| 7.60 | C[C@@H]1[C@H](N)CCCN1C(=O)c1cc(F)c2c(c1)nc(-c1cc3ccc4nc3n1CCCCCc1ncc3ccccc3c1C(=O)N[C@@H]4C)n2C1CC1 [Example 748, (2~{R})-21-[5-[(2~{R},3~ {R})-3-amino-2-methyl-piperidine-1-carbonyl]-1-cyclopropyl-7-fluoro-benzimidazol-2-yl]-2-methyl-3,13,20,26-tetrazapentacyclo[18.5.2.0^ {5,14}.0^{6,11}.0^{23,27}] heptacosa-1(26),5(14),6(11), 7,9,12,21,23(27),24-nonaen-4-one] |
| 7.74 | COc1cc(C(=O)N2C[C@H](N)[C@@H]3CC[C@H]2C3)cc2nc(-c3cc4ccc5nc4n3CCCCC[C@@H]3C[C@H]3C(=O)N[C@@H]5C)n(C3CC3)c12 [Example 767, (2~{R},5~{R},7~{R})-14-[5-[(1~{S},4~{R},5~{R})-4-amino-2-azabicyclo[3.2.1]octane-2-carbonyl]-1-cyclopropyl-7-methoxy-benzimidazol-2-yl]-2-methyl-3,13,19-triazatetracyclo[11.5.2.0^ {5,7}.0^{16,20}]icosa-1(19),14,16(20),17-tetraen-4-one] |
| 7.39 | COCCn1c(-c2cc3ccc4nc3n2CCCCC[C@@H]2C[C@H]2C(=O)N[C@@H]4C)nc2cc(C(=O)N[C@H]3CNCC[C@@H]3F)cc(OC)c21 [Example 431, ~{N}-[(3~{S},4~{S})-4-fluoro-3-piperidyl]-7-methoxy-1-(2-methoxyethyl)-2-[(2~{R},5~{R},7~{R})-2-methyl-4-oxo-3,13,19-triazatetracyclo[11.5.2.0^{5,7}.0^{16,20}]icosa-1(19),14,16(20),17-tetraen-14-yl]benzimidazole-5-carboxamide] |
| 7.49 | COc1cc(C(=O)N2[C@H]3CC[C@@H]2[C@H](N)C3)cc2nc(-c3cc4ccc5nc4n3C[C@H]3C[C@@H]3COCCC(=O)N[C@@H]5C)n(C)c12 [Example 217, (3~{S},5~{S},12~{R})-18-[5-[(1~{R},2~{R},4~{S})-2-amino-7-azabicyclo[2.2.1]heptane-7-carbonyl]-7-methoxy-1-methyl-benzimidazol-2-yl]-12-methyl-7-oxa-1,11,20-triazatetracyclo[11.5.2.0^{3,5}.0^{16,19}] icosa-13(20),14,16(19),17-tetraen-10-one] |
| 7.09 | COc1cc(C(=O)N2C[C@H](N)[C@@H]3CC[C@H]2C3)cc2nc(-c3cc4ccc5nc4n3CCCCCc3nc(C(F)(F)F)ccc3C(=O)N[C@@H]5C)n(C3CC3)c12 [Example 847, (2~{R})-17-[5-[(1~{S},4~{R}, 5~{R})-4-amino-2-azabicyclo [3.2.1]octane-2-carbonyl]-1-cyclopropyl-7-methoxy-benzimidazol-2-yl]-2-methyl-8-(trifluoromethyl)-3,9,16,22-tetrazatetracyclo[14.5.2.0^ {5,10}.0^{19,23}]tricosa-1(22),5(10),6,8,17,19(23),20-heptaen-4-one] |
| 6.76 | COc1cc2c(cc1C(=O)N[C@H]1CNCC[C@@H]1F)nc(-c1cc3ccc4nc3n1CCCCCCC(C)(C)C(=O)N[C@@H]4C)n2C [Example 592, ~{N}-[(3~{S},4~{S})-4-fluoro-3-piperidyl]-6-methoxy-1-methyl-2-[(11~{R})-8,8,11-trimethyl-9-oxo-1,10,19-triazatricyclo[10.5.2.0^ {15,18}]nonadeca-12,14,16,18-tetraen-17-yl]benzimidazole-5-carboxamide] |
| 7.42 | C[C@H]1NC(=O)c2cc3ccccc3nc2CCCCCn2c(-c3nc4cc(C(=O)N5C[C@H](N)[C@@H]6CC[C@H]5C6)cc(F)c4n3C3CC3)cc3ccc1nc32 [Example 476, (2~{R})-21-[5-[(1~{S),4~{R},5~{R})-4-amino-2-azabicyclo[3.2.1]octane-2-carbonyl]-1-cyclopropyl-7-fluoro-benzimidazol-2-yl]-2-methyl-3,13,20,26-tetrazapentacyclo[18.5.2.0^{5,14).0^ {7,12}.0^{23,27}]heptacosa-1(26),5(14),6,8,10,12,21,23(27),24-nonaen-4-one] |
| 6.50 | COc1cc(C(=O)N[C@H]2CNC[C@H](F)C2)cc2nc(-c3cc4ccc5nc4n3CCCCCCC(C)(C)C(=O)N[C@@H]5C)n(C)c12 [Example 64, ~{N}-[(3~{R},5~{R})-5-fluoro-3-piperidyl]-7-methoxy-1-methyl-2-[(11~{R})-8,8,11-trimethyl-9-oxo-1,10,19-triazatricyclo[10.5.2.0^{15,18}]nonadeca-12(19),13,15(18),16-tetraen-17-yl]benzimidazole-5-carboxamide] |
| 7.85 | COc1cc(C(=O)N2CCC[C@@H](N)[C@H]2C)cc2nc(-c3cc4ccc5nc4n3CCCCCc3cncc(F)c3C(=O)N[C@@H]5C)n(C)c12 [Example 657, (2~{R})-17-[5-[(2~{R},3~{R})-3-amino-2-methyl-piperidine-1-carbonyl]-7-methoxy-1-methyl-benzimidazol-2-yl]-6-fluoro-2-methyl-3,8,16,22-tetrazatetracyclo [14.5.2.0^{5,10}.0^{19,23}] tricosa-1(22),5,7,9,17,19(23), 20-heptaen-4-one] |
| 7.70 | C[C@@H]1[C@H](N)CCCN1C(=O)c1cc(F)c2c(c1)nc(-c1cc3ccc4nc3n1CCCCC[C@]1(F)C[C@H]1C(=O)N[C@@H]4C)n2C1CC1 [Example 705, (2~{R},5~{S},7~{S})-14-[5-[(2~{R},3~{R})-3-amino-2-methyl-piperidine-1-carbonyl]-1-cyclopropyl-7-fluoro-benzimidazol-2-yl]-7-fluoro-2-methyl-3,13,19-triazatetracyclo[11.5.2.0^ {5,7}.0^{16,20}]icosa-1(19),14,16(20),17-tetraen-4-one] |
| 5.69 | C[C@H]1NC(=O)[C@H]2C[C@@H]2CC[C@@H]2C[C@@H]2Cn2c(-c3nc4cc(C(=O)N[C@H]5CNCC[C@@H]5F)c(F)cc4n3C)cc3ccc1nc32 [Example 379, 6-fluoro-~{N}-[(3~{S),4~{S})-4-fluoro-3-piperidyl]-1-methyl-2-[(3~{S},5~{R},8~{S},10~{S},13~{R})-13-methyl-11-oxo-1,12,21-triazapentacyclo[12.5.2.0^{3,5}.0^{8,10}.0^ {17,20}]henicosa-14(21),15,17(20),18-tetraen-19-yl]benzimidazole-5-carboxamide] |
| 7.31 | C[C@@H]1[C@H](N)CCCN1C(=O)c1cc(F)c2c(c1)nc(-c1cc3ccc4nc3n1CCCCCc1nc(C(F)(F)F)ccc1C(=O)N[C@@H]4C)n2C1CC1 [Example 838, (2~{R})-17-[5-[(2~{R}, 3~{R})-3-amino-2-methyl-piperidine-1-carbonyl]-1-cyclopropyl-7-fluoro-benzimidazol-2-yl]-2-methyl-8-(trifluoromethyl)-3,9,16,22-tetrazatetracyclo[14.5.2.0^ {5,10).0^{19,23}] tricosa-1(22),5(10), 6,8,17,19(23),20-heptaen-4-one] |
| 6.52 | COc1cc(C(=O)N2CC[C@@H](OC(F)F)[C@@H](N)C2)cc2nc(-c3cc4ccc5nc4n3CCCCCc3cc4ccccc4nc3C(=O)N(C)[C@@H]5C)n(C)c12 [Example 736, (2~{R})-21-[5-[(3~{S},4~{R})-3-amino-4-(difluoromethoxy)piperidine-1-carbonyl]-7-methoxy-1-methyl-benzimidazol-2-yl]-2,3-dimethyl-3,6,20,26-tetrazapentacyclo[18.5.2.0^ {5,14}.0^{7,12}.0^{23,27}] heptacosa-1(26),5(14), 6,8,10,12,21,23(27),24-nonaen-4-one] |
